One data set concerns RNase A. Description: gel assay of siRNA protection from RNase A degradation. The data set is classed as in vitro ADME. To be noted: 1 hour, several N:P ratios. On the procedure:
Gel Shift Assays. DIVA3, DIV3H, and DIV3W (all three denoted as DIV3 (X)) peptides suspended in RNase-free water (10 μM), were thawed, and kept on ice prior to complexation with 10 μM of negative control siGENOME non-targeting siRNA #5 (siNT, GE Healthcare Dharmacon, Lafayette, CO) in RNase-free water and incubated for 20 minutes at room temperature to allow the formation of DIV3 (X)-siNT complexes. Various molar ratios of peptides were complexed with siNT at increasing N:P molar ratios to determine the minimum molar ratio necessary to completely complex free siRNAs using an electrophoretic mobility shift assay. To determine the ability of each peptide variant to protect siRNAs from degradation, DIV3 (X)-siNT complexes or siNT alone was left untreated or incubated with either 50% v/v FBS or 5 μg/mL RNase A at 37° C. for one hour. Next, complexes were dissociated using 6% sodium dodecyl sulfate (SDS). Samples were added to a 2% agarose gel and run at 100 V. Gels were stained with ethidium bromide, destained with Milli-Q water, and imaged using a ChemiDoc XRS imager (Bio-Rad, Hercules, CA).
Characterization of Nanoparticle Size and Stability. To determine the minimum molar ratio necessary to completely complex free siRNAs, increasing N:P molar ratios of LHRH, DIV3W, and LHRH-DIV3W peptide were complexed with siRNAs and electrophoresed using a electrophoretic mobility shift assay. Molar ratios, shown as N:P, are representations of the molar amine peptide content in relation to 1 mole of phosphate group siRNA content. To determine the ability of the peptides to protect siRNAs from serum- or RNase-mediated degradation, LHRH and LHRH-DIV3W complexes were formed in RNase-free water with siNT at increasing N:P molar ratios and incubated at 37° C., 5% CO2, 50% v/v FBS, 5 μg/mL RNase A, or 50% v/v RNase free water for 1 hour. Peptide/siRNA complexes were dissociated using 6% sodium dodecyl sulfate (SDS) prior to electrophoresis in a 2% agarose gel run at 100 V. Gels were stained with ethidium bromide, washed with Milli-Q water, and imaged with a BioRad ChemiDoc XRS imager (BioRad, Hercules, CA).
Peptides VA-LD and GF-LD, comprising the cleavable linker VA or GLFG, respectively, between the LHRH target sequence and the DIV3W peptide, and non targeting siRNA were electrostatically complexed at increasing N:P ratios then subjected to agarose gel electrophoresis to determine optimal siRNA binding for each peptide. […] Peptide-siRNA nanocomplexes at increasing N:P ratios for peptides for VA-LD (FIG. 30A) and GF-LD (FIG. 30C) were incubated in either Rnase A enzyme or in 50% fetal bovine serum (FBS) for 1 h, dissociated using SDS then subjected to gel electrophoresis to visualize siRNA bands. Gels showing increasing N:P ratios of peptide:siRNA for VA-LD (FIG. 30B) and GF-LD (FIG. 30D) from 20:1 to 80:1 N:P; white bands are indicative of intact siRNA

A short description of data set [1]: dynamic light scattering, size and zeta potential of peptide/siRNA complexes. Format: physicochemical. How it is done: Dynamic Light Scattering and Transmission Electron Microscopy. DIV3 (X)-siNT complexes were prepared at 2 mg/mL in RNase-free water. Hydrodynamic size and surface charge of the peptide/siRNA complexes were determined using a Nano ZS Zetasizer (Malvern Pananalytical, Malvern, UK). All data were recorded using Malvern's Zetasizer software.
To determine nanoparticle size and zeta potential, peptides resuspended in RNase-free water (10 μM) were thawed and kept on ice prior to complexation with 10 μM of siNT in RNase-free water and incubated for 20 minutes at room temperature to form DIV3W-siNT and LHRH-DIV3W-siNT complexes. Peptide complexes were prepared at 2 mg/mL in RNase-free water. Hydrodynamic size and surface charge analysis was conducted using a Malvern Nano ZS Zetasizer (Malvern Panalytical, Malvern, UK). All data was analyzed using Malvern's Zetasizer software.

Data set [2] concerns MCF10a breast epithelial cells. Description: MTS cell viability assay, healthy cells. The note with it: 48 h (FIG. 25: DIV3W-siNT complexes). The data set is classed as cell-based.
The next data set relates to OVCAR3 cells. Description: cellular uptake of labeled siRNA by flow cytometry. Format: cell-based. To be noted: for uptake efficiency: OVCAR3, siNT-DY547, 4 hours. How it is done:
Cellular Uptake. OVCAR3 and CAOV3 cells were prepared at 50,000 cells per well in a 24-well plate. […] Post-incubation, media was aspirated and cells were washed with 1× PBS. To counterstain the nuclei, SuperSignal NucBlue Hoechst stain (Thermo Fisher, Waltham, MA) was added to the cells for 30 minutes, followed by an additional 1×PBS wash. Subsequent imaging was performed using an EVOS FL Microscope (Thermo Fisher) at 10× magnification. For flow cytometric analysis, cells were detached, resuspended in 1× PBS, and analyzed using an Attune NXT Acoustic flow cytometer (Invitrogen, Carlsbad, CA) with the blue laser line and BL2 (574/26 nm) channel.
Cellular Uptake and Targeting Specificity. Observation of cell uptake was performed by seeding OVCAR3 and CAOV3 cells at a density of 50,000 cells per well in a 24-well plate. LHRH and LHRH-DIV3W peptides were complexed with […] as previously described and delivered to cells at 20:1 to 80:1 N:P ratios. Each cell line was incubated with tandem peptide complexes for both 4- and 24-hour treatment periods. Following incubation, cell media was removed, and cells were washed with 1× PBS prior to the addition of 500 μL of 1×PBS and SuperSignal NucBlue Hoescht 33342 nuclear stain (Thermo Fisher, Waltham, MA). Cellular imaging was completed using an EVOS FL Microscope (Thermo Fisher) at 10×, 20×, and 40× magnification. Flow cytometry was completed after cell imaging and cells were trypsinized, resuspended in 1×PBS, and analyzed with an Attune NXT Acoustic Flow Cytometer (Invitrogen) with the red laser line and RL2 […] channel.

Data set [3] has as its system CSNK2A1 mRNA. Description: qPCR of CSNK2A1 mRNA in OVCAR3 cells. The data set is classed as cell-based. The note with it: maximum; ratio and cell line not stated at the place. On the procedure: (§1) qRT-PCR. Cells were seeded at 50,000 cells per well and treated with siRNA targeting CSNK2A1 (siCSNK2A1 #s3638, Thermo Fisher Scientific) at increasing N:P ratios and incubated for a total of 48 hours in McCoys 5A/DMEM-10% FBS. Treated cells were washed with 1×PBS at 24 hours and fresh media was added. RNAisolation was completed using a Qiagen Mini-RNeasy Kit (Qiagen, Hilden, Germany) according to the manufacturer's protocol. RNA isolation quality and quantity were measured through the Gen5 protocol using a Take3 plate (BioTek). RNA was reverse-transcribed using the QuantiTect Reverse Transcription kit (Qiagen). Quantitative real-time PCR was completed with a QuantStudio 3 qPCR system (Applied Biosystems) using Applied Biosystems TaqMan FAST Master Mix (Thermo Fisher) and CSNK2A1 (ID #Hs00751002_s1) and 18S (ID #Hs99999901_s1) predesigned TaqMan probes, according to the manufacturer's protocol.
Gene and Protein Knockdown. Bioactivity of siRNAs was determined via qPCR and western blot analysis. OVCAR3 or CAOV3 cells were seeded at 50,000 cells per well as previously described and treated with siRNA targeting CSNK2A1 and siNT at N:P ratios 30:1, 40:1, 50:1, 60:1, and 70:1. LHRH-DIV3W peptide complexed with either siNT or siCSNK2A1 was incubated for a total of 48 hours in RPMI 1640/DMEM-10% FBS, with one media exchange occurring after the 24-hour timepoint. Treated cells were washed with 1×PBS at 24 hours and fresh media was added. RNA isolation was completed using a Qiagen Mini-RNeasy Kit (Qiagen, Hilden, Germany) according to the manufacturer's protocol. RNA isolation quality and quantity was measured through the Gen5 protocol using a Take3 plate (BioTek). RNA was reverse transcribed using the QuantiTect Reverse Transcription kit (Qiagen) according to the manufacturer's protocol. Quantitative real-time PCR was completed with a QuantStudio 3 qPCR system (Applied Biosystems, Waltham, MA) using Applied Biosystems TaqMan FAST Master Mix (Thermo Fisher) and CSNK2A1 (ID #Hs00751002_s1) and 18S (ID #Hs99999901_s1) predesigned TaqMan probes according to the manufacturer's protocol.

The subject of data set [4] is CSNK2A1 mRNA. Description: qPCR of CSNK2A1 mRNA in CAOV3 cells. The data set is classed as cell-based. The note with it: CAOV3, 48 hours, 80:1. On the procedure:
as §1

The text below walks through data of US20250177548A1, “FUSOGENIC PEPTIDE COMPOSITIONS AND METHODS OF CARGO DELIVERY” (CLEMSON UNIVERSITY, priority 2022, published 2025).

Non-standard residues stand in square brackets, D forms with d. Residues, ends and D or L forms follow the SMILES beside them.

In the case of `CC[C@H](C)[C@H](NC(=O)[C@H](CC(=O)O)NC(=O)[C@H](C)NC(=O)[C@@H](NC(=O)[C@@H](NC(=O)[C@H](CC(=O)O)NC(=O)[C@H](Cc1c[nH]c2ccccc12)NC(=O)[C@@H](NC(=O)[C@@H](NC(=O)[C@H](CC(=O)O)NC(=O)[C@H](C)NC(=O)[C@@H](NC(=O)[C@@H](NC(=O)[C@H](CC(=O)O)NC(=O)[C@H](C)NC(=O)[C@H](CCC(=O)O)NC(=O)[C@@H](N)Cc1c[nH]c2ccccc12)[C@@H](C)CC)C(C)C)[C@@H](C)CC)C(C)C)[C@@H](C)CC)C(C)C)C(=O)N[C@H](C(=O)N[C@@H](C)C(=O)NCC(=O)NCC(=O)NCC(=O)N[C@H](CCCNC(=N)N)C(=O)N[C@H](CCCNC(=N)N)C(=O)N[C@H](CCCNC(=N)N)C(=O)N[C@H](CCCNC(=N)N)C(=O)N[C@H](CCCNC(=N)N)C(=O)N[C@H](CCCNC(=N)N)C(=O)N[C@H](CCCNC(=N)N)C(=O)N[C@H](CCCNC(=N)N)C(=O)N[C@H](CCCNC(=N)N)C(=O)O)C(C)C` [DIV3W] (H-WEADIVADIVWDIVADIVAGGG[dR][dR][dR][dR][dR][dR][dR][dR][dR]-OH), the “intact siRNA after incubation with RNase A” value in the data set with RNase A is “Minimal degradation”. Also, the hydrodynamic diameter entry in data set [1] (DIV3 (X) peptide/siRNA complex at 60:1 ratio) is listed as “around 100 nm”. This compound displayed a zeta potential in data set [1] (DIV3 (X) peptide/siRNA complexes) of about 30 mV. The “cytotoxicity in healthy cells” value in data set [2] was “no cytotoxic effects were observed”. Further, the siRNA internalization efficiency entry with OVCAR3 cells (OVCAR3, at each N:P ratio) is listed as “approximately 65%”. Further, the uptake efficiency with OVCAR3 cells (40:1) is listed as 70.0%; with OVCAR3 cells (60:1), 69.7%; in the data set with OVCAR3 cells (80:1), 66.6%. Besides, the mRNA reduction result in the data set on CSNK2A1 mRNA [3] is listed as “up to 94%”. Moreover, the “CSNK2A1 mRNA knockdown, maximum” value in the data set on CSNK2A1 mRNA [4] was determined as 80%.
